# Tested on: LG0703-F948-PDC complex spheroid viability
# Assay: Anticancer human tumor LG0703-F948-PDC patient-derived lung adenocarcinoma cell line growth inhibition [RAS]
# Details: for IC50: curve of first compound; for viability, T/C: stronger effect = lower value
# Method in brief: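 Tumour cells grown as complex spheroids with HUVEC endothelial cells and mesenchymal stem cells, treated with RAS pathway inhibitor combinations. Each agent spans half-log steps from near clinical Cmax, or 10 microM where Cmax is unknown.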
# [1] = second compound 0.000949 µM, first compound 0.0316 µM
# [2] = second compound 0.000949 µM, first compound 0.1 µM
# [3] = second compound 0.000949 µM, first compound 0.316 µM
# [4] = second compound 0.000949 µM, first compound 1 µM
# [5] = second compound 0.003 µM, first compound 0.0316 µM
# [6] = second compound 0.003 µM, first compound 0.1 µM
# [7] = second compound 0.003 µM, first compound 0.316 µM
# [8] = second compound 0.003 µM, first compound 1 µM
# [9] = second compound 0.00949 µM, first compound 0.0316 µM
# [10] = second compound 0.00949 µM, first compound 0.1 µM
# [11] = second compound 0.00949 µM, first compound 0.316 µM
# [12] = second compound 0.00949 µM, first compound 1 µM
# [13] = second compound 0.03 µM, first compound 0.0316 µM
# [14] = second compound 0.03 µM, first compound 0.1 µM
# [15] = second compound 0.03 µM, first compound 0.316 µM
# [16] = second compound 0.03 µM, first compound 1 µM
# [17] = second compound 0.0949 µM, first compound 0.0316 µM
# [18] = second compound 0.0949 µM, first compound 0.1 µM
# [19] = second compound 0.0949 µM, first compound 0.316 µM
# [20] = second compound 0.0949 µM, first compound 1 µM
# [21] = second compound 0.3 µM, first compound 0.0316 µM
# [22] = second compound 0.3 µM, first compound 0.1 µM
# [23] = second compound 0.3 µM, first compound 0.316 µM
# [24] = second compound 0.3 µM, first compound 1 µM
# 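Note: spheroids exposed to agents for 7 days.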
# 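Throughout, for viability, T/C: 100% = DMSO vehicle wells.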
smiles,measurement,setting,value
C=CC(=O)Nc1cc(Nc2nccc(-c3cn(C)c4ccccc34)n2)c(OC)cc1N(C)CCN(C)C + CCn1c(-c2cc(N3CCN(C)CC3)cnc2C(C)OC)c2c3cc(ccc31)-c1csc(n1)CC(NC(=O)C1CC1C)C(=O)N1CCCC(N1)C(=O)OCC(C)(C)C2,IC50,second compound 0.000949 µM,5.17 nM
same,IC50,second compound 0.003 µM,< 3.16 nM
same,IC50,second compound 0.00949 µM,< 3.16 nM
same,IC50,second compound 0.03 µM,< 3.16 nM
same,IC50,second compound 0.0949 µM,< 3.16 nM
same,IC50,second compound 0.3 µM,< 3.16 nM
same,"viability, T/C","second compound 0.000949 µM, first compound 0.00316 µM",62.6%
same,"viability, T/C","second compound 0.000949 µM, first compound 0.01 µM",33%
same,"viability, T/C",[1],17.7%
same,"viability, T/C",[2],12.9%
same,"viability, T/C",[3],11.6%
same,"viability, T/C",[4],9.33%
same,"viability, T/C","second compound 0.003 µM, first compound 0.00316 µM",30.5%
same,"viability, T/C","second compound 0.003 µM, first compound 0.01 µM",18.5%
same,"viability, T/C",[5],12.6%
same,"viability, T/C",[6],10.9%
same,"viability, T/C",[7],12.3%
same,"viability, T/C",[8],8.1%
same,"viability, T/C","second compound 0.00949 µM, first compound 0.00316 µM",24%
same,"viability, T/C","second compound 0.00949 µM, first compound 0.01 µM",14.2%
same,"viability, T/C",[9],12.6%
same,"viability, T/C",[10],9.67%
same,"viability, T/C",[11],8.83%
same,"viability, T/C",[12],9.91%
same,"viability, T/C","second compound 0.03 µM, first compound 0.00316 µM",14.1%
same,"viability, T/C","second compound 0.03 µM, first compound 0.01 µM",13.1%
same,"viability, T/C",[13],8.75%
same,"viability, T/C",[14],7.03%
same,"viability, T/C",[15],6.1%
same,"viability, T/C",[16],4.67%
same,"viability, T/C","second compound 0.0949 µM, first compound 0.00316 µM",9.07%
same,"viability, T/C","second compound 0.0949 µM, first compound 0.01 µM",7.77%
same,"viability, T/C",[17],5.22%
same,"viability, T/C",[18],5.15%
same,"viability, T/C",[19],5.21%
same,"viability, T/C",[20],3.75%
same,"viability, T/C","second compound 0.3 µM, first compound 0.00316 µM",7.47%
same,"viability, T/C","second compound 0.3 µM, first compound 0.01 µM",9.59%
same,"viability, T/C",[21],5.92%
same,"viability, T/C",[22],5.32%
same,"viability, T/C",[23],4.11%
same,"viability, T/C",[24],2.62%
CC(=O)OC12COC1CC(O)C1(C)C(=O)C(O)C3=C(C)C(OC(=O)C(O)C(NC(=O)OC(C)(C)C)c4ccccc4)CC(O)(C(OC(=O)c4ccccc4)C21)C3(C)C (centres undefined) + CCn1c(-c2cc(N3CCN(C)CC3)cnc2C(C)OC)c2c3cc(ccc31)-c1csc(n1)CC(NC(=O)C1CC1C)C(=O)N1CCCC(N1)C(=O)OCC(C)(C)C2,IC50,second compound 0.000949 µM,< 31.6 nM
same,IC50,second compound 0.003 µM,< 31.6 nM
same,IC50,second compound 0.00949 µM,< 31.6 nM
same,IC50,second compound 0.03 µM,< 31.6 nM
same,IC50,second compound 0.0949 µM,< 31.6 nM
same,IC50,second compound 0.3 µM,< 31.6 nM
same,"viability, T/C",[1],37.4%
same,"viability, T/C",[2],33.5%
same,"viability, T/C",[3],37.2%
same,"viability, T/C",[4],30.1%
same,"viability, T/C","second compound 0.000949 µM, first compound 3.16 µM",25.9%
same,"viability, T/C","second compound 0.000949 µM, first compound 10 µM",19.9%
same,"viability, T/C",[5],23.8%
same,"viability, T/C",[6],17%
same,"viability, T/C",[7],23%
same,"viability, T/C",[8],15.7%
same,"viability, T/C","second compound 0.003 µM, first compound 3.16 µM",12.3%
same,"viability, T/C","second compound 0.003 µM, first compound 10 µM",14.2%
same,"viability, T/C",[9],11.2%
same,"viability, T/C",[10],13.6%
same,"viability, T/C",[11],12.8%
same,"viability, T/C",[12],12%
same,"viability, T/C","second compound 0.00949 µM, first compound 3.16 µM",7.75%
same,"viability, T/C","second compound 0.00949 µM, first compound 10 µM",7.15%
same,"viability, T/C",[13],6.77%
same,"viability, T/C",[14],7.29%
same,"viability, T/C",[15],9.54%
same,"viability, T/C",[16],7.24%
same,"viability, T/C","second compound 0.03 µM, first compound 3.16 µM",6.73%
same,"viability, T/C","second compound 0.03 µM, first compound 10 µM",4.63%
same,"viability, T/C",[17],7.39%
same,"viability, T/C",[18],5.34%
same,"viability, T/C",[19],4.2%
same,"viability, T/C",[20],4.62%
same,"viability, T/C","second compound 0.0949 µM, first compound 3.16 µM",4%
same,"viability, T/C","second compound 0.0949 µM, first compound 10 µM",2.6%
same,"viability, T/C",[21],9.13%
same,"viability, T/C",[22],5.01%
same,"viability, T/C",[23],3.87%
same,"viability, T/C",[24],4.26%
same,"viability, T/C","second compound 0.3 µM, first compound 3.16 µM",3.58%
same,"viability, T/C","second compound 0.3 µM, first compound 10 µM",2.37%

# Source: PubChem BioAssay AID2060890 (Molecular Pharmacology Branch, DTP, NCI, 2025)
